The values below come from patent US6472530B1, “Benzo-fused dithiepino[6,5-b]pyridines, and related compositions and methods” (Ortho-McNeil Pharmaceutical, Inc., priority 1999, dated 2002).

The target of one assay is T1, calcium channel (Oryctolagus cuniculus, UniProt P15381).
T1 construct: from tissue; host or cells: rabbit heart membrane preparation
T1 sequence (P15381 whole entry, other chains not shown): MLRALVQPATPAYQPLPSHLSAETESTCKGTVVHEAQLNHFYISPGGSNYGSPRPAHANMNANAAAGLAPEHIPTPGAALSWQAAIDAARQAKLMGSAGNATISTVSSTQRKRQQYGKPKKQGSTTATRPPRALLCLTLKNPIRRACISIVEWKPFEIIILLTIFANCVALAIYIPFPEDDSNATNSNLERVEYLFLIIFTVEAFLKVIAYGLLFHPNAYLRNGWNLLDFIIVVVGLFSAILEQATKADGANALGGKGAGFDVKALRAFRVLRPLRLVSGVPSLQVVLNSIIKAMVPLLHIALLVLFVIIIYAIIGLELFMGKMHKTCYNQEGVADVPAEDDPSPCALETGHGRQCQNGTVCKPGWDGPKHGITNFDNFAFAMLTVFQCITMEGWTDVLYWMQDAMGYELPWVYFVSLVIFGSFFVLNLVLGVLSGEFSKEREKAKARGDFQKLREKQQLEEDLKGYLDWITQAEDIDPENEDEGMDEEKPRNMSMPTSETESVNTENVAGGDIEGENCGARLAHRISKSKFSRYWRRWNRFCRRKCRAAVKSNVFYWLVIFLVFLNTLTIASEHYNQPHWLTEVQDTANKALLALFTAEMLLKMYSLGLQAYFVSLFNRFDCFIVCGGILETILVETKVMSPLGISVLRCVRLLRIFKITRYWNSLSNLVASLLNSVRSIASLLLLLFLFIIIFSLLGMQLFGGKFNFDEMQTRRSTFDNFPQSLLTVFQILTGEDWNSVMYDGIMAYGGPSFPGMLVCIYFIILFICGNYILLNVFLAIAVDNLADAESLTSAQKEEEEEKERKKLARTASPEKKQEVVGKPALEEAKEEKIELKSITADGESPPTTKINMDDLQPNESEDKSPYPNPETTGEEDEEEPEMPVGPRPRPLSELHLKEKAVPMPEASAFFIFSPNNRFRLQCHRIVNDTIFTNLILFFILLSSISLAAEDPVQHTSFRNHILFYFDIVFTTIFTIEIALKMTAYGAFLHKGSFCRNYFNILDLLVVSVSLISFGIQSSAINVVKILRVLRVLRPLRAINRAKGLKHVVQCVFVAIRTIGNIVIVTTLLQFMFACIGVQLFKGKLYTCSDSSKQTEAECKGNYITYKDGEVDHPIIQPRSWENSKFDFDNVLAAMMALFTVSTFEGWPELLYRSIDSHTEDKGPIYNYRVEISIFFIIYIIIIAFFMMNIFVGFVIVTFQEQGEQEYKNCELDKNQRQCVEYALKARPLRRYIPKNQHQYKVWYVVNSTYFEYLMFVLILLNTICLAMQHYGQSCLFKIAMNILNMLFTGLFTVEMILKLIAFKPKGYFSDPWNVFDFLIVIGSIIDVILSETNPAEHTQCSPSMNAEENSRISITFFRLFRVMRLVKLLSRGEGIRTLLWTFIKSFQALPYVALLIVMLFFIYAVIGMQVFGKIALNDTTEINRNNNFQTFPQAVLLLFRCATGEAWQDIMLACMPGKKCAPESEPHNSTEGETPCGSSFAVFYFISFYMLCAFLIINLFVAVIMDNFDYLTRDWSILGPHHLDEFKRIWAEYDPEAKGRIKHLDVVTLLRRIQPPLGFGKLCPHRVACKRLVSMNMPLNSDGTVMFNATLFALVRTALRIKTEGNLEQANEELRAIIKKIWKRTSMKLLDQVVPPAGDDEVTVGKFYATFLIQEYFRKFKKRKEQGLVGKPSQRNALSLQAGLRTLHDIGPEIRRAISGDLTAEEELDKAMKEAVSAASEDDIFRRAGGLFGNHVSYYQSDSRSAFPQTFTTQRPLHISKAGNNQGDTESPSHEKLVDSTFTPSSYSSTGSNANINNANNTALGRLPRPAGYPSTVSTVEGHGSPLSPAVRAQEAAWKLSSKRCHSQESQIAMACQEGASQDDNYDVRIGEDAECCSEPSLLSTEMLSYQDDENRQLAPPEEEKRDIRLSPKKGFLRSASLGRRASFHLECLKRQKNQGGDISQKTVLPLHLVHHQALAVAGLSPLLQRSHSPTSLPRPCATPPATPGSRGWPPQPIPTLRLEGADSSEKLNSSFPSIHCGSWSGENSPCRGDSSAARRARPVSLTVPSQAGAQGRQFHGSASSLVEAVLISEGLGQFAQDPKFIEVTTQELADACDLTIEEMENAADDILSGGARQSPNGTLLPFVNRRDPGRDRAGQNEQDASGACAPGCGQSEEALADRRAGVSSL
T1 sequence (P13806 27-960 partner limits assumed, other chains not shown): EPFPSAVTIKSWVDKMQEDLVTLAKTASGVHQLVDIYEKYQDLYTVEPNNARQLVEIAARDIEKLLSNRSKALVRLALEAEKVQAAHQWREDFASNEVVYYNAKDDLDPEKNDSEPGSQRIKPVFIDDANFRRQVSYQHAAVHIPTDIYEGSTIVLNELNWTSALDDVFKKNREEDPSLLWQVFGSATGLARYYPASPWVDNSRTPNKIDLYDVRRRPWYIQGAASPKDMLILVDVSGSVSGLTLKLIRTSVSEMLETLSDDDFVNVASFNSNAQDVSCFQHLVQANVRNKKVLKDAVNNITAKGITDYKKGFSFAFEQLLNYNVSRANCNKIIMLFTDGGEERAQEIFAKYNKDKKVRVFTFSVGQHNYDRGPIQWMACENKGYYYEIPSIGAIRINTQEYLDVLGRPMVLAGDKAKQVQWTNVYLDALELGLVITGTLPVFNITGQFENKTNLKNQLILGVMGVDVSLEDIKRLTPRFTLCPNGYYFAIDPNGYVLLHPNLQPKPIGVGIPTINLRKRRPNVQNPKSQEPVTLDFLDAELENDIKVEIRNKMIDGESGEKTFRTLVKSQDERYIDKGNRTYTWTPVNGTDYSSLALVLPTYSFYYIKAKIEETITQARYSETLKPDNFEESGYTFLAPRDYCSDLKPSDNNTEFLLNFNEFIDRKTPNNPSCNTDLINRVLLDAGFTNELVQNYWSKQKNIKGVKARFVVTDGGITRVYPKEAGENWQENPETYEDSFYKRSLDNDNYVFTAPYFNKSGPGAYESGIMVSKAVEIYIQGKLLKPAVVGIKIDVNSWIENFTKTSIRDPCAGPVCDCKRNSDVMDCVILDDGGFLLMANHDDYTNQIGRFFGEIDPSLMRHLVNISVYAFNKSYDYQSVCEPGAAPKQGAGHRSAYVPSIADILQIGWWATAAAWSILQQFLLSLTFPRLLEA
T1 sequence (P13806 961-1106 partner limits assumed, other chains not shown): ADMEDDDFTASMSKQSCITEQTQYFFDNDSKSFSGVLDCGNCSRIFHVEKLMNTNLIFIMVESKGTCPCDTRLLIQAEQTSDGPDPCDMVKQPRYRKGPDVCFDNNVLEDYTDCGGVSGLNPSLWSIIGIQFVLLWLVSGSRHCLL
In words: Assay for Inhibition of Nitrendipine Binding (3H-nitrendipine, heart membranes).
Conditions: not given
Also noted: species or system rabbit. On the procedure: Assay for Inhibition of Nitrendipine Binding
Female, New Zealand white rabbits (1-2 kg) are sacrificed by cervical dislocation, and the heart is immediately removed, cleaned and chopped into small pieces. The tissue is homogenized in 5×times volume of 0.05M Hepes buffer, pH 7.4. The homogenate is centrifuged at 4000 g for 10 minutes, and the supernatant is re-centrifuged at 42,000×g for 90 minutes. The resulting membrane pellet is resuspended (0.7 ml/g weight) in 0.05M Hepes, pH 7.4 and stored at […] until used. Each tube of the binding assay contains ^3H-nitrendipine (0.05-0.50 nM), buffer, membranes (0.10 ml), and test compound in a total volume of 1.0 ml. After 90 minutes at 4° C., the bound nitrendipine is separated from the unbound by filtration on Whatman GF/C filters. After rinsing, the filters are dried and counted in a liquid scintillation counter.
Non-specific binding of ^3H-nitrendipine (that amount bound in the presence of excess unlabelled nitrendipine) is subtracted from the total bound to obtain specifically bound radiolabeled nitrendipine. The amount of specifically bound nitrendipine in the presence of a test compound is compared to that amount bound in the absence of a compound. A percent displacement (or inhibition) can then be calculated.
As for `CC1=C(C(=O)OCCOC(=O)Cc2ccccc2)C(c2c(F)cccc2Cl)C2=C(CS(=O)(=O)c3ccccc3S2(=O)=O)N1` (centres unmarked) [Compound 30], the 50% inhibitory concentration (IC50) was determined as 110 nM.

Staying with this assay, now noted: Table 1, compounds of Formula I; 3H-nitrendipine displacement, rabbit heart membranes; read-out: Nitrendipine Binding Assay IC50.
As for `COC(=O)C1=C(C)NC2=C(C1c1cccc([N+](=O)[O-])c1)S(=O)(=O)c1ccccc1S(=O)(=O)C2` (centres unmarked) [Compound 15, 1H-[1,5]Benzodithiepino[3,2-b]pyridine-3-carboxylic acid, 4,11-dihydro-2-methyl-4-(3-nitrophenyl), methyl ester, 5,5,10,10-tetraoxide], the IC50 is 20 nM.
On the same count and under the same terms, the figure for `CC1=C(C(=O)OCCN(C)Cc2ccccc2)C(c2cccc(C(F)(F)F)c2F)C2=C(CS(=O)(=O)c3ccccc3S2(=O)=O)N1` (centres unmarked) [Compound 14, 1H-[1,5]Benzodithiepino[3,2-b]pyridine-3-carboxylic acid, 4-[2-fluoro-3-(trifluoromethyl)phenyl]-4,11-dihydro-2-methyl, 2-[methyl(phenylmethyl)-amino]ethyl ester, 5,5,10,10-tetraoxide] is 58 nM; for `COC(=O)C1=C(C)NC2=C(C1c1ccccc1Cl)S(=O)(=O)c1ccccc1[S+]([O-])C2` (centres unmarked) [Compound 1, 1H-[1,5]Benzodithiepino[3,2-b]pyridine-3-carboxylic acid, 4-(2-chlorophenyl)-4,11-dihydro-2-methyl, methyl ester, 5,5,10-trioxide] it is 14 nM.
The same measure, in the same setting: the figure for `CC1=C(C(=O)OCCN(C)Cc2ccccc2)C(c2cccc(Cl)c2)C2=C(CS(=O)(=O)c3ccccc3S2(=O)=O)N1` (centres unmarked) [Compound 4, 1H-[1,5]Benzodithiepino[3,2-b]pyridine-3-carboxylic acid, 4-(3-chlorophenyl)-4,11-dihydro-2-methyl, 2-[methyl(phenylmethyl)amino]ethyl ester, 5,5,10,10-tetraoxide] is 22 nM.
Still for that read-out and setting: the figure for `CC1=C(C(=O)OCCN(C)Cc2ccccc2)C(c2c(F)cccc2Cl)C2=C(CS(=O)(=O)c3ccccc3S2(=O)=O)N1` (centres unmarked) [Compound 17, 1H-[1,5]Benzodithiepino[3,2-b]pyridine-3-carboxylic acid, 4-(2-chloro-6-fluorophenyl)-4,11-dihydro-2-methyl, 2-[methyl(phenylmethyl)amino]ethyl ester, 5,5,10,10-tetraoxide] is 62 nM.

The assay is the same for the next values; noted with them: Table 2, compounds of Formula II; 3H-nitrendipine displacement, rabbit heart membranes; read-out: Nitrendipine Binding IC50.
Consider `CC1=C(C(=O)OCCCOC(=O)c2ccccc2)C(c2c(F)cccc2Cl)C2=C(CS(=O)(=O)c3ccccc3S2(=O)=O)N1` (centres unmarked) [Compound 34], for which the IC50 came out at 188 nM.
Same read-out and setting: the figure for `CC1=C(C(=O)OCCOC(=O)C(C)C)C(c2c(F)cccc2Cl)C2=C(CS(=O)(=O)c3ccccc3S2(=O)=O)N1` (centres unmarked) [Compound 27] is 26 nM; for `CC1=C(C(=O)OCCOC(=O)c2ccccc2)C(c2c(F)cccc2Cl)C2=C(CS(=O)(=O)c3ccccc3S2(=O)=O)N1` (centres unmarked) [Compound 23, 1H-[1,5]benzodithiepino[3,2-b]pyridine-3-carboxylic acid, 4-(2-chloro-6-fluorophenyl)-4,11-dihydro-2-methyl-, 2-(benzoyloxy)ethyl ester, 5,5,10,10-tetraoxide] it is 30 nM.
The same measure, in the same setting: the figure for `CC(=O)OCCOC(=O)C1=C(C)NC2=C(C1c1c(F)cccc1Cl)S(=O)(=O)c1ccccc1S(=O)(=O)C2` (centres unmarked) [Compound 22, 1H-[1,5]benzodithiepino[3,2-b]pyridine-3-carboxylic acid, 4-(2-chloro-6-fluorophenyl)-4,11-dihydro-2-methyl-, 2-(acetyloxy)ethyl ester, 5,5,10,10-tetraoxide] is 180 nM.
`CC1=C(C(=O)OCCNC(=O)c2ccccc2)C(c2c(F)cccc2Cl)C2=C(CS(=O)(=O)c3ccccc3S2(=O)=O)N1` (centres unmarked) [Compound 29, 1H-[1,5]benzodithiepino[3,2-b]pyridine-3-carboxylic acid, 4-(2-chloro-6-fluorophenyl)-4,11-dihydro-2-methyl-, 2-(benzoylamino)ethyl ester, 5,5,10,10-tetraoxide]: the IC50 came out at 859 nM.
